Results from article PMC12062478, “Screening herbal and natural product libraries to aid discovery of novel allosteric modulators of human P2X7” (Purinergic Signalling, 2024).
Where two headings read alike, the source gives them in different places.

Legend:
P2X7 [1] = biological target: T1, P2X7 (Homo sapiens, UniProt Q99572); experiment: fura-2 intracellular calcium assay in HEK-hP2X7 cells; format: cell-based; details: fura-2-loaded HEK-hP2X7, 10 min pre-treatment, 1 mM ATP
T1 construct: expressed in transfected cells
T1 sequence (Q99572 1-595): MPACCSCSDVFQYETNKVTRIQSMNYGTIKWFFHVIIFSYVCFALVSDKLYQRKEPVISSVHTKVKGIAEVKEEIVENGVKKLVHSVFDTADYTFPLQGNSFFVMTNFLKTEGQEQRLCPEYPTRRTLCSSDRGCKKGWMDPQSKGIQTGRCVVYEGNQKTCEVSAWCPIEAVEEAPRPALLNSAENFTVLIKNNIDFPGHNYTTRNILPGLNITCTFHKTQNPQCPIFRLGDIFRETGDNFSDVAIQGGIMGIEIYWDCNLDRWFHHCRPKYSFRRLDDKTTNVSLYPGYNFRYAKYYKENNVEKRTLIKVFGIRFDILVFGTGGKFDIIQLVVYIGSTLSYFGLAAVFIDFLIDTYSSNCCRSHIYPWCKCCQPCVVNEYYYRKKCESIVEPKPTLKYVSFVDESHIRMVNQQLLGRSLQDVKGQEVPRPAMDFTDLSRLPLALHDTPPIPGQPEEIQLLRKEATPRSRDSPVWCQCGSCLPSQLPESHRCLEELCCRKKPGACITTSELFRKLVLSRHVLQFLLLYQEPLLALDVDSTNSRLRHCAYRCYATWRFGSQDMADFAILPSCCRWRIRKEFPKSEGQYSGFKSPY
Procedure: Supplementary Figure 3: Validation of P2X7 antagonist activity using a fura-2 assay. HEK-hP2X7 cells were loaded with fura-2AM (2µM) to measure intracellular calcium responses to ATP. Cells were loaded for 45 minutes at 37 °C and then pre-treated with various concentrations of test compounds for 10 minutes. For full methodological details please see [1]. Responses to 1mM ATP were assessed over 300 seconds using a Flexstation 3 plate reader. Ratiometric fura-2 data was converted to area under curve.

P2X7 [2] = biological target: T1, P2X7; experiment: ATP-induced YO-PRO-1 dye uptake in HEK-hP2X7 cells; format: cell-based; details: for IC50: HEK-hP2X7, 10 min pre-treatment, read-out: IC50 value (95% CI); for Effect on P2X7 responses: purified glycosides/aglycone from potentiating extracts; for P2X7 response (% of control): compound 10 µM injected 60 s before ATP
Procedure: HEK-hP2X7 or HEK-hP2X4 cells were plated at 2.5 × 10^4 cells per well (100 µL volume) the day before experiments into poly-D-lysine (Merck Millipore) coated 96-well plates (NUNC, Fisher Scientific #167-008). The membrane impermeant dye YO-PRO-1 iodide (Life Technologies, Fisher Scientific) was used at a final concentration of 2 µM in low divalent buffer (145 mM NaCl, 5 mM KCl, 0.2 mM CaCl2, 13 mM glucose, 10 mM HEPES, pH 7.3, osm 300–310). Media were removed from the plate, and 90 µL of YO-PRO-1 buffer was added per well. Plates were warmed to 37 °C for 5 min before recording. Data was acquired on a Flexstation 3 plate reader (Molecular Devices) using excitation wavelength 490 nm, emission wavelength 520 nm, and six reads per well (PMT medium). […] […] Pipette height was set to 80 µL and the rate of injection was 4.
YO-PRO-1 dye uptake assay data is plotted as a percentage of control where control responses are measured in the absence of plant extract. Cell viability data is plotted as a percentage of control or background-corrected fluorescence data. Concentration–response graphs were plotted using GraphPad Prism v6 with a non-linear regression fit (variable slope). IC50 values were generated from collated datasets from a minimum of three independent experiments. Statistical differences were determined by one-way ANOVA statistical tests performed using GraphPad Prism v6 with Dunnett’s multiple comparison post hoc test. Significance was taken as P ≤ 0.05.
We acquired a natural product library (Set IV) containing 419 compounds from NCI DTP and tested these on P2X7 responses using a YO-PRO-1 dye uptake in HEK293 cells stably expressing human P2X7 (HEK-hP2X7). […] This allowed us to assess for any immediate effect of the injected compound, and secondly, it allowed for any potential negative modulators to be pre-incubated with P2X7.

hP2X7 [3] = biological target: T2, hP2X7 (Homo sapiens, UniProt Q99572); experiment: Whole-cell patch-clamp electrophysiology in HEK-hP2X7 cells; format: cell-based; details: 10 µM with ATP 100 µM, 5-s application, −60 mV
T2 sequence (Q99572 1-595): T1 sequence (Q99572 1-595)
Procedure: Stably expressing HEK-hP2X7 cells were plated onto 13-mm glass coverslips 24 h prior to use. Membrane currents were recorded in the whole-cell patch-clamp configuration using an EPC10 amplifier (HEKA Elektronik) and borosilicate glass electrodes (TF-150 World Precision Instruments), resistance […] when filled with standard internal solution (145 mM NaCl, 10 mM HEPES, 10 mM EGTA, pH 7.3). Cells were voltage-clamped at − 60 mV, and dialysis of intracellular contents was performed for 1 min prior to experimental procedures. Cells were continuously perfused by gravity feed with standard divalent buffer solution (145 mM NaCl, 5 mM KCl, 2 mM CaCl2, 1 mM MgCl2, 13 mM glucose, 10 mM HEPES, pH 7.3) prior to seal formation, and low divalent buffer solution was used for agonist and PAM application. Agonists were applied using a computer-controlled fast-flow system (RSC-160; Bio-Logic Scientific Instruments) with the perfusion capillaries placed in close proximity to the cell under investigation.
Fig. 6 Dioscin enhances P2X7-dependent pore formation and potentiates channel opening. A Dioscorea nipponica (organic) plant extract (30 µg/mL) increased ATP-dependent YO-PRO-1 iodide uptake. AZ10606120 (10 µM, grey bars) was added to block hP2X7. B YO-PRO-1 uptake following a co-stimulation of HEK-hP2X7 cells with 200 µM ATP ± the named compounds in the presence or absence of AZ10606120. YO-PRO-1 uptake was quantified between 50 and 300 s (n = 5). C Whole-cell patch-clamp recordings were performed at room temperature. Cells were voltage-clamped at − 60 mV, and responses to a 5-s stimulation of ATP (100 µM) followed by a 5-s stimulation of ATP (100 µM) + dioscin/diosgenin (10 µM) were measured from HEK-hP2X7 cells. Representative traces are shown. D Summary of normalised current amplitudes represented as a fold change compared to ATP responses in the absence of dioscin/diosgenin (n = 10–18 cells). E Concentration response to ATP in the presence of dioscin (10 µM, green) or vehicle (DMSO, black) using YO-PRO-1 uptake assay in HEK-hP2X7 and F HEK-293 cells. […]

hP2X7 [4] = biological target: T2, hP2X7; details: cited from earlier work
[5] = screen for potential negative allosteric modulators

Question: For `COc1ccc2cc3[n+](cc2c1OC)CCc1cc2c(cc1-3)OCO2` [Berberine], which “P2X7 antagonist activity on ATP-induced calcium responses” value (P2X7 [1]) is on record?
Answer: The value was “demonstrated P2X7 antagonist activity”.

Question: What about the IC50 (P2X7 [2]; ATP 1 mM) of the same compound?
Answer: The IC50 was 5.17 µM.

Question: Which “Potentiation of hP2X7 ion channel opening” value (hP2X7 [3]) does the source give for `C[C@@H]1CC[C@@]2(OC1)O[C@H]1C[C@H]3[C@@H]4CC=C5C[C@@H](O)CC[C@]5(C)[C@H]4CC[C@]3(C)[C@H]1[C@@H]2C` [Diosgenin, diosgenin] here?
Answer: Its value is “not capable of potentiating P2X7 channel opening”.

Question: And the “Effect on P2X7 responses” value (P2X7 [2])?
Answer: The value was “could not potentiate responses”.

Question: With `O=C(O[C@@H]1Cc2c(O)cc(O)cc2O[C@@H]1c1cc(O)c(O)c(O)c1)c1cc(O)c(O)c(O)c1` [EGCG, epigallocatechin gallate] as the compound, how does the “P2X7 antagonist activity on ATP-induced calcium responses” value (P2X7 [1]) read?
Answer: Its value is “demonstrated P2X7 antagonist activity”.

Question: Which results are given for `Cc1cc(O)c2c(c1)C(=O)c1cc(O)cc(O)c1C2=O` [Emodin]?
Answer: IC50 (hP2X7 [4]; electrophysiological recordings, read-out: IC50): 3 µM; IC50 (P2X7 [2]; ATP 1 mM): 55.2 µM

Question: With `CC1(C)C[C@]23[C@@H]4COC(=O)[C@H]2CC[C@H]1[C@@H]3CC4=O` [Quadrone] as the compound, how does the “P2X7 response (% of control)” value (P2X7 [2]; [5]) read?
Answer: Its value is 40.82 % of control.

Question: With `CO[C@H]1[C@@H](O)[C@@H](C)O[C@@H](OC2CCC3(C)C(CCC4C3C(O)CC3(C)C(C5=CC(=O)OC5)CCC43O)C2)[C@@H]1O` (some centres unmarked) [Sarnovid] as the compound, how does the “P2X7 response (% of control)” value (P2X7 [2]; [5]) read?
Answer: The value was 38.95 % of control.

Question: Which results are given for `COc1cc2ccc(=O)oc2cc1O` [Scopoletin]?
Answer: Effect on YO-PRO-1 uptake at high concentrations (P2X7 [2]; > 30 µM, HEK-hP2X7): reduction of YO-PRO-1 uptake in hP2X7 cells at high concentrations; IC50 (P2X7 [2]; ATP 1 mM): 39.9 µM

Question: For `C=C(NC(=O)C(=C)NC(=O)c1csc(C2=N[C@@H]3c4csc(n4)[C@H]4NC(=O)c5csc(n5)[C@H]([C@](C)(O)[C@@H](C)O)NC(=O)[C@H]5CSC(=N5)/C(=C/C)NC(=O)[C@H]([C@@H](C)O)NC(=O)c5csc(n5)[C@]3(CC2)NC(=O)[C@H](C)NC(=O)C(=C)NC(=O)C(=C)NC(=O)[C@H](C(C)C)N[C@@H]2C=Cc3c([C@H](C)O)cc(nc3[C@H]2O)C(=O)O[C@@H]4C)n1)C(N)=O` [Siomycin A], which “P2X7 response (% of control)” value (P2X7 [2]; screen for PAM activity) is on record?
Answer: The value was 157.10 % of control.

Question: Which “P2X7 response (% of control)” value (P2X7 [2]; screen for PAM activity) does the source give for `COC1=C(N)C(=O)c2nc(-c3nc(C(=O)O)c(C)c(-c4ccc(OC)c(OC)c4O)c3N)ccc2C1=O` [Streptonigrin] here?
Answer: Its value is 139.02 % of control.

Question: Which “Effect on ATP-mediated YO-PRO-1 uptake” value (P2X7 [2]; 10 µM, 10 min pre-incubation, ATP 1 mM) does the source give for `COc1ccc2c(c1OC)CN1CCc3cc4c(cc3C1C2)OCO4` (centres unmarked) [Tetrahydroberberine] here?
Answer: The value was “able to reduce ATP-mediated YO-PRO-1 uptake”.

Question: And the “P2X7 response (% of control)” value (P2X7 [2]; [5])?
Answer: The value was 26.9 % of control.

Question: For `CO[C@@H]1/C=C/O[C@@]2(C)Oc3c(C)c(O)c4c(c3C2=O)C(=N[C@@H]2CC[C@@H](O)O[C@H]2C)C=C(NC(=O)/C(C)=C\C(=O)[C@@H]2C[C@@H]2[C@H](O)[C@@H](C)[C@@H](O)[C@@H](C)[C@H](OC(C)=O)[C@@H]1C)C4=O` [Tolypromycin Y], which “P2X7 response (% of control)” value (P2X7 [2]; [5]) is on record?
Answer: The value was 47.05 % of control.

Question: With `COc1cc(C=O)ccc1O` [Vanilline] as the compound, how does the “P2X7 response (% of control)” value (P2X7 [2]; screen for PAM activity) read?
Answer: The value was 158.27 % of control.

Question: For `COC(=O)/C(=C1/OC(=O)C(c2ccccc2)=C1O)c1ccccc1` [Vulpinic acid], which “P2X7 response (% of control)” value (P2X7 [2]; screen for PAM activity) is on record?
Answer: Its value is 150.3 % of control.

Question: Which “P2X7 response (% of control)” value (P2X7 [2]; screen for PAM activity) does the source give for `CC1=C(C)C(=O)O[C@@H]([C@](C)(O)[C@H]2CC[C@H]3[C@@H]4[C@@H]5O[C@@H]5[C@@]5(O)CC=CC(=O)[C@]5(C)[C@H]4CC[C@]23C)C1` [Withanolide A] here?
Answer: Its value is 149.93 % of control.

Question: Which IC50 (hP2X7 [4]; inhibition of hP2X7 currents by electrophysiology, read-out: IC50 value) does the source give for `O=C(O)c1cc(O)c(O)c(O)c1` [gallic acid] here?
Answer: The IC50 was 4.26 µM.

Question: For `COc1ccc2c(c1)CC=C(CO)c1cc3c(cc1-2)OCO3` [tenuifolin], which “Effect on P2X7 responses” value (P2X7 [2]) is on record?
Answer: The value was “no effect on P2X7 responses”.

Question: Which “P2X7 response (% of control)” value (P2X7 [2]; [5]) does the source give for `COc1cc([C@@H]2c3cc4c(c(O)c3C[C@H]3COC(=O)[C@@H]32)OCO4)cc(OC)c1OC` [Β-peltatin] here?
Answer: The value was 31.98 % of control.

Question: For Erythromycin cyclopentylproprionate, which “P2X7 response (% of control)” value (P2X7 [2]; screen for PAM activity) is on record?
Answer: The value was 126.67 % of control.

Question: For Hexopyranuronic acid, which “P2X7 response (% of control)” value (P2X7 [2]; screen for PAM activity) is on record?
Answer: Its value is 147.11 % of control.

Question: For Medicarpin, which “P2X7 response (% of control)” value (P2X7 [2]; screen for PAM activity) is on record?
Answer: The value was 140.60 % of control.

Question: For Monoacetyl verrucan A, which “P2X7 response (% of control)” value (P2X7 [2]; screen for PAM activity) is on record?
Answer: The value was 170.65 % of control.

Question: With Ossamycin as the compound, how does the “P2X7 response (% of control)” value (P2X7 [2]; screen for PAM activity) read?
Answer: The value was 145.55 % of control.

Question: With Predorine as the compound, how does the “P2X7 response (% of control)” value (P2X7 [2]; screen for PAM activity) read?
Answer: Its value is 740.31 % of control.

Question: Which “Sensitivity of the potentiated ATP response to P2X7 antagonist AZ10606120” value (P2X7 [2]; AZ10606120 10 µM) does the source give for Scopafungin here?
Answer: The value was “could be prevented by pre-treatment with the P2X7 selective antagonist, AZ10606120”.

Question: And the “YO-PRO-1 uptake in the absence of ATP” value (P2X7 [2]; HEK-hP2X7)?
Answer: The value was “increase in YO-PRO-1 uptake in the absence of ATP”.

Question: What about the “Effect on ATP concentration–response curve” value (P2X7 [2]; compound 10 µM) of the same compound?
Answer: The value was “increase the maximum response to ATP and increase the sensitivity to ATP”.

Question: And the “P2X7 response (% of control)” value (P2X7 [2]; screen for PAM activity)?
Answer: The value was 159.83 % of control.
